Results: patent US20110053897A1 (IRM LLC, priority 2009, published 2011)
Read-outs that look alike come from different tables or passages of the source.

Biological target: T1, Syk kinase (Homo sapiens, UniProt P43405)
T1 construct: purchased
Test: Syk kinase inhibition, Caliper LabChip off-chip mobility-shift kinase assay
Type: biochemical
Conditions: read-out: Syk Enzyme IC50
Method in brief: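 Purified Syk pre-incubated 15 min with compound in 100 mM HEPES pH 7.5, 1 mM DTT, 10 mM MgCl2 or MnCl2, 0.002% Brij-35, then 1.5 μM fluorescein peptide and ATP at apparent KM added; 1–1.5 h at room temperature, 4% DMSO, EDTA stop. Microfluidic mobility-shift product/substrate conversion gave % inhibition; IC50 from 12-point series (10–0.00003 μM) by 4-parameter fit.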

SMILES	IC50	IC50 (Caliper LabChip assay)
COc1cncc(-c2cc3cc[nH]c(=O)c3c(Nc3ccc(CCN4CCNCC4)cc3)n2)n1 [compound 54]	64 nM	
CCN1CCN(C2CCC(c3ccc(Nc4nc(-c5cncnc5)cc5cc[nH]c(=O)c45)cc3)CC2)CC1 (centres unmarked) [compound 108]	116 nM	
Cc1ccnc(Nc2cc3ccn(C)c(=O)c3c(NCC(F)(F)F)n2)c1 [compound 493]	214 nM	
COCCCNc1nc(Nc2cc(C)ccn2)cc2cc[nH]c(=O)c12 [compound 281]	87 nM	
CC(O)c1ccnc(Nc2cc3ccn(CCO)c(=O)c3c(NC3(C)CCC3)n2)c1 (centres unmarked) [compound 718]		11 nM
CC(C)(CO)Nc1nc(-c2cnc(N)nc2)cc2ccn(CCO)c(=O)c12 [compound 902]		57 nM
CCn1ccc2cc(Nc3cnccn3)nc(N[C@@H]3CC[C@@H](CO)C3)c2c1=O [compound 791]		58 nM
CN1CCN([C@H]2CC[C@H](c3ccc(Nc4nc(-c5cncnc5)cc5cc[nH]c(=O)c45)cc3)CC2)CC1 [compound 103]	59 nM	
CC(C)(C)Nc1nc(Nc2cc(C(C)(F)F)ccn2)cc2ccn(CCO)c(=O)c12 [compound 874]		33 nM
Cc1cc(Nc2nc(-c3cncc(NC4CC4)n3)cc3cc[nH]c(=O)c23)ccc1C1CCN(CCC#N)CC1 [compound 68]	89 nM	
CC(C)(C)Nc1nc(-c2cnc(N)nc2)cc2ccn(CC3CCOCC3)c(=O)c12 [compound 919]		81 nM
COCC1(C(=O)N2CCC(c3ccc(Nc4nc(-c5cncc(OC)n5)cc5cc[nH]c(=O)c45)cc3C)CC2)CC1 [compound 16]	99 nM	
CNS(=O)(=O)c1ccc(Nc2nc(Nc3cc(C)ccn3)cc3ccn(C)c(=O)c23)cc1 [compound 349]	414 nM	
COc1cncc(-c2cc3cc[nH]c(=O)c3c(Nc3ccc(C4CCN(C5CCCC5)CC4)c(C)c3)n2)n1 [compound 62]	11 nM	
O=c1[nH]ccc2cc(Nc3cc(C(F)(F)F)ccn3)nc(NC3CC3)c12 [compound 517]	386 nM	
Cc1ccnc(Nc2cc3ccn(C)c(=O)c3c(Nc3ccc(C4CCNCC4)cc3)n2)c1 [compound 308]	7 nM	
Cc1ncc(-c2cc3cc[nH]c(=O)c3c(Nc3ccc(C4CCN(CCC#N)CC4)c(C)c3)n2)cn1 [compound 73]	81 nM	
[2H]C([2H])([2H])n1ccc2cc(-c3cnc(N)nc3)nc(N[C@H]3CC[C@@H](O)CC3)c2c1=O [compound 1026]		21 nM
COCCN1CCC(Oc2cc(Nc3cc4ccn(CCO)c(=O)c4c(NC(C)(C)C)n3)ncn2)CC1 [compound 647, 8-(tert-butylamino)-2-(2-hydroxyethyl)-6-(6-(1-(2-methoxyethyl)piperidin-4-yloxy)pyrimidin-4-ylamino)-2,7-naphthyridin-1(2H)-one]		14 nM
COc1cncc(-c2cc3cc[nH]c(=O)c3c(Nc3ccc(C4CCN(C(C)C)CC4)c(C)c3)n2)n1 [compound 165]	3 nM	
COc1cncc(-c2cc3cc[nH]c(=O)c3c(Nc3ccc(C4CCN(C5CC5)CC4)c(C)c3)n2)n1 [compound 210]	88 nM	
CC(C)Nc1nc(Nc2cc(-c3cccnc3)ccn2)cc2ccn(C)c(=O)c12 [compound 1046]		113 nM
CC1(Nc2nc(Nc3cc(C(C)(C)O)ncn3)cc3ccn(CC(O)CO)c(=O)c23)CC1 (centres unmarked) [compound 729]		31 nM
Cc1ccnc(Nc2cc3cc[nH]c(=O)c3c(NC3CCN(C)CC3)n2)c1 [compound 550]	111 nM	
Cc1ccnc(Nc2cc3ccn(CCO)c(=O)c3c(NCC(C)(C)C)n2)c1 [compound 814]		390 nM

SMILES	IC50	IC50 (Caliper LabChip assay)
CC(C)(C)Nc1nc(Nc2cc(C(C)(C)O)c(F)cn2)cc2ccn(CCO)c(=O)c12 [compound 717]		18 nM
COCC(C)Nc1nc(Nc2cc(C)ccn2)cc2cc[nH]c(=O)c12 (centres unmarked) [compound 266]	74 nM	
Cc1ccnc(Nc2cc3ccn(C(C)C)c(=O)c3c(N[C@H]3CC[C@@H](O)CC3)n2)c1 [compound 943]		39 nM
CC(C)(C)Nc1nc(Nc2cc(C(C)(C)O)ncn2)cc2ccn(CC(O)CO)c(=O)c12 (centres unmarked) [compound 730]		42 nM
Cc1ccnc(Nc2cc3cc[nH]c(=O)c3c(NCCC3CCCN3C)n2)c1 (centres unmarked) [compound 562]	288 nM	
Cc1ccnc(Nc2cc3ccn(CCCO)c(=O)c3c(N[C@H]3CC[C@@H](O)CC3)n2)c1 [compound 947]		19 nM
COc1cncc(-c2cc3cc[nH]c(=O)c3c(Nc3ccc(CCN4CCNC(=O)C4)cc3)n2)n1 [compound 155]	55 nM	
CC1(Cn2ccc3cc(-c4cnc(N)nc4)nc(NC4(C)CCC4)c3c2=O)COC1 [compound 932]		57 nM
Cc1ccnc(Nc2cc3ccn(C)c(=O)c3c(NC[C@@H](C)O)n2)c1 [compound 511]	86 nM	
Cc1ccnc(Nc2cc3ccn(CCN4CCOCC4)c(=O)c3c(NC(C)C)n2)c1 [compound 315]	381 nM	
Cc1ncc(-c2cc3cc[nH]c(=O)c3c(Nc3ccc([C@H]4CC[C@@H](N5CCOCC5)CC4)cc3)n2)cn1 [compound 11]	652 nM	
CCn1ccc2cc(Nc3cnccn3)nc(N[C@H]3CC[C@H](O)CC3)c2c1=O [compound 949]		50 nM
COc1cncc(-c2cc3cc[nH]c(=O)c3c(Nc3ccc(C4CCN(C(=O)C(O)C(C)C)CC4)c(C)c3)n2)n1 (centres unmarked) [compound 6]	398 nM	
CCN1CCN(CCc2ccc(Nc3nc(Nc4cc(C(F)(F)F)ccn4)cc4cc[nH]c(=O)c34)cc2)CC1 [compound 520]	183 nM	
Cc1ccnc(Nc2cc3ccn(C)c(=O)c3c(NC(C)C)n2)c1 [compound 508]	153 nM	
CN1CCC(c2ccc(Nc3nc(Nc4cnccn4)cc4ccn(C)c(=O)c34)cc2)CC1 [compound 344]	45 nM	
Cc1nc(-c2cc3cc[nH]c(=O)c3c(Nc3ccc([C@H]4CC[C@H](N5CCOCC5)CC4)cc3)n2)cnc1N [compound 102]	226 nM	
COc1cncc(-c2cc3cc[nH]c(=O)c3c(Nc3ccc([C@H]4CC[C@H](N5CCOCC5)CC4)cc3)n2)n1 [compound 56]	358 nM	
CCN1CCN(CCc2ccc(Nc3nc(-c4cnn(CC(C)C)c4)cc4cc[nH]c(=O)c34)cc2)CC1 [compound 444]	122 nM	
O=c1c2c(NC3CCCC3)nc(Nc3cnccn3)cc2ccn1C[C@H](O)CO [compound 775]		10 nM
CC(C(N)=O)n1ccc2cc(-c3cnc(N)nc3)nc(NC(C)(C)C)c2c1=O (centres unmarked) [compound 665]		5 nM
COCCCc1cc(Nc2cc3ccn(CCO)c(=O)c3c(NC(C)(C)C)n2)ncn1 [compound 622]		85 nM
COc1cncc(-c2cc3cc[nH]c(=O)c3c(Nc3ccc(C4CCN(C(C)C(=O)NC5CC5)CC4)c(C)c3)n2)n1 (centres unmarked) [compound 121]	183 nM	
COc1ncc(-c2cc3cc[nH]c(=O)c3c(Nc3ccc(CCN4CCNC(=O)C4)cc3)n2)cn1 [compound 151]	201 nM	
CCn1ccc2cc(Nc3cc(C)ccn3)nc(NC(C)(C)C)c2c1=O [compound 525]	242 nM	

SMILES	IC50	IC50 (Caliper LabChip assay)
CC(C)(C)Nc1nc(-c2cnc(N)nc2)cc2ccn(CC(=O)O)c(=O)c12 [compound 667]		23 nM
CC1(Cn2ccc3cc(Nc4cnccn4)nc(NC4CCCC4)c3c2=O)COC1 [compound 762]		22 nM
Cc1ccnc(Nc2cc3cc[nH]c(=O)c3c(N[C@H]3CCC[C@H]3O)n2)c1 (racemic) [compound 271]	26 nM	
[2H]C([2H])([2H])n1ccc2cc(Nc3cc(C)c(Cl)cn3)nc(NC(C)(C)C)c2c1=O [compound 537]	502 nM	
CCN1CCN(CCc2ccc(Nc3nc(-c4ccc(C)nc4)cc4c(F)c[nH]c(=O)c34)cc2)CC1 [compound 443]	419 nM	
O=c1[nH]ccc2cc(Nc3cnccn3)nc(N[C@H]3CC[C@@H](O)CC3)c12 [compound 981]		15 nM
C[C@@H](O)CNc1nc(-c2cnc(N)nc2)cc2cc[nH]c(=O)c12 [compound 452]	140 nM	
CC(C)(C)Nc1nc(Nc2cc(Oc3cn[nH]c3)ncn2)cc2ccn(C[C@H](O)CO)c(=O)c12 [compound 890]		21 nM
CCc1ccnc(Nc2cc3cc[nH]c(=O)c3c(NC3CC3)n2)c1 [compound 521]	131 nM	
CNC(=O)C(C)N1CCC(c2ccc(Nc3nc(-c4cncc(OC)n4)cc4cc[nH]c(=O)c34)cc2C)CC1 (centres unmarked) [compound 173]	11 nM	
CCc1ccnc(Nc2cc3cc[nH]c(=O)c3c(Nc3ccc(C4CCN(C5CC5)CC4)c(C)c3)n2)c1 [compound 253]	33 nM	
CC(=O)c1cc2cc[nH]c(=O)c2c(Nc2ccc(C3CCNCC3)c(C)c2)n1 [compound 232]	242 nM	
CC(C)(C)Nc1nc(Nc2cc(S(C)(=O)=O)ccn2)cc2ccn(CCO)c(=O)c12 [compound 699]		99 nM
CCn1ccc2cc(Nc3cc(C)ccn3)nc(Nc3ccc(C(=O)N4CCC(O)CC4)cc3)c2c1=O [compound 835]		131 nM
CCN1CCN(CCc2ccc(Nc3nc(Nc4ccc(C(F)(F)F)cn4)cc4cc[nH]c(=O)c34)cc2)CC1 [compound 556]	631 nM	
O=c1[nH]ccc2cc(Nc3ccccn3)nc(NC3CC3)c12 [compound 524]	199 nM	
Cc1cccnc1Nc1cc2cc[nH]c(=O)c2c(Nc2ccc(N3CCOCC3)cc2)n1 [compound 533]	382 nM	
COc1cncc(-c2cc3cc[nH]c(=O)c3c(Nc3ccc(C4=CCSCC4)c(C)c3)n2)n1 [compound 12]	3430 nM	
CCn1ccc2cc(Nc3cnccn3)nc(N[C@H]3CCOC3)c2c1=O [compound 355]	37 nM	
CNC(=O)c1ccc(Nc2nc(Nc3cnccn3)cc3ccn(C)c(=O)c23)cc1 [compound 343]	333 nM	
COCCCNc1nc(Nc2ccccn2)cc2cc[nH]c(=O)c12 [compound 190]	286 nM	
O=C1CCC(c2ccc(Nc3nc(-c4cncnc4)cc4cc[nH]c(=O)c34)cc2)CC1 [compound 91]	400 nM	
Nc1nc(Nc2cnccn2)cc2ccn(CCO)c(=O)c12 [compound 811]		651 nM
COCCn1ccc2cc(Nc3cnccn3)nc(N[C@H]3CC[C@@H](O)CC3)c2c1=O [compound 1005]		17 nM
